Data taken from patent US20090320718A1, “FLUOROSURFACTANTS” (priority 2006, published 2009).

Experiment: Determination of the surface tension (Kruss tensiometer K12, ring method)
Assay type: physicochemical
Conditions: for surface tension: measurement solutions in deionised water, 20° C.
Method: • Instrument: Kruss tensiometer (model K12) • Temperature of the measurement solutions: 20° C. • Measurement module employed: ring • Concentration of the measurement solutions: about 0.5 to 3.0 g/l in deionised water
Further details on the method are given in the European Commission publication: Classification, Packaging and Labelling of Dangerous Substances in the European Union, Part II-Test Methods, Annex V-Methods for Determining the Physical-Chemical Properties, the Toxicity and the Ecotoxicity, Part A, Surface Tension (A.5), January 1997, pages 51-57, and also the OECD Guideline for the Testing of Chemicals, Section 1, Physical-Chemical Properties, method 115, pages 1-7, adopted: 27.07.95, the contents of which in this respect are expressly part of the disclosure content of the present application.

## O=S(=O)([O-])CCCCCCCCCCCSCCC(F)(F)F.[Na+] [CF3—CH2—CH2—S—(CH2)11—SO3Na]
Concentration: 100.7 mg/100 ml
  surface tension: 38.55 mN/m

## O=C(O)CCCCCCCCCCSCCC(F)(F)F [Example 5c, 11-(3,3,3-Trifluoropropylsulfanyl)undecanoic acid]
At 0.016 mol/l, sodium salt (2 eq of NaOH/eq of carboxylic acid)
  Surface tension of an aqueous solution of the sodium salt: 33.4 mN/m

## 11-(S-trifluoromethyl)mercaptoundecane-1-sulfonic acid sodium salt [CF3—S—(CH2)11—SO3Na]
concentration: 99.8 mg/100 ml
  surface tension: 31.29 mN/m
